One may read the melting point as the temperature, or range, at which the solid turns liquid.

One series deals with MCP-1 induced migration of THP-1 cells. Description: Inhibition of MCP-1 induced leukocyte migration (transwell, THP-1 cells). The settings on record: Homo sapiens, MCP-1 25 ng/ml, 2 hours 37° C., read-out: ED50 (concentration required to reduce the MCP-1-induced migration by 50%). The format is cell-based. The method, then:
In principle, this assay consists of two chambers separated by a porous membrane. The chemoattractant is placed in the lower compartment and the cells are placed in the upper compartment. After incubation for a period at 37° C. the cells move towards the chemoattractant, and the number of cells in the lower compartment is proportional to the chemoattractant activity (relative to a series of controls).
The THP-1 cell line (European Cell culture Collection) were used as the leukocyte cell population.
The following procedure is used for testing the invention compounds for MCP-1 induced leukocyte migration:
First, the cell suspension to be placed in the upper compartment is prepared. The THP-1 cells are pelleted by centrifugation (770×g; 4 mins) and washed with Geys Balanced Salt Solution with 1 mg/ml BSA (GBSS+BSA). This wash is then repeated, and the cells repelleted before being resuspended in a small volume of GBSS+BSA for counting, for example using a standard haemocytometer.
The volume of GBSS+BSA is then adjusted depending on the number of cells present so that the cells are at final density of 4.45×10^6 cells per ml of GBSS+BSA. This ensures that there are […] THP-1 cells in each 25 μl of the solution that will be placed in the upper chamber of the plate.
To test a single compound for its ability to inhibit MCP-1 induced migration, it is necessary to prepare two lots of cells. The suspension of THP-1 cells at 4.45×10^6 cells/ml is divided into two pots. To one pot the inhibitor under test is added at an appropriate final concentration, in an appropriate vehicle (for example at 1 μM in not more than 1% DMSO). To the second pot an equal volume of GBSS+BSA plus vehicle as appropriate (e.g. not more than 1% DMSO) is added to act as a control.
Next, the chemoattractant solution to be placed in the lower compartment is prepared. MCP-1 is diluted in GBSS+BSA to give a final concentration of 25 ng/ml. This is divided into two pots, as for the cell suspension. To one pot, the test compound is added to the same final concentration as was added to the cell suspension, while to the other pot an equal volume of GBSS+BSA plus vehicle as appropriate (e.g. not more than 1% DMSO) is added.
Note that the volume of liquid that needs to be added to make the addition of the text compound needs to be taken into account, when establishing the final concentration of MCP-1 in the solution for the lower compartment and the final concentration of cells in the upper compartment.
Once the chemoattractant solutions for the lower wells and cell solutions for the upper chambers have been prepared, the migration chamber should be assembled. Place 29 μl of the appropriate chemoattractant solution into the lower well of the chamber. Assays should be performed with at least triplicate determinations of each condition. Once all the lower chambers have been filled, apply the prous membrane to the chamber in accordance with the manufacturer's instructions. Finally, apply 25 μl of the appropriate cell solution to each upper chamber. A plastic lid is placed over the entire apparatus to prevent evaporation.
The assembled chamber is incubated at 37° C., 5% CO2, for 2 hours. A suspension of cells in GBSS+BSA is also incubated under identical conditions in a tube: these cells will be used to construct a standard curve for determining the number of cells that have migrated to the lower chamber under each condition.
At the end of the incubation, the liquid cell suspension is gently removed from the upper chamber, and 20 μl of ice-cold 20 mM EDTA in PBS is added to the upper chamber, and the apparatus is incubated at 4° C. for 15 mins. This procedure causes any cells adhering to the underside of the membrane to fall into the lower chamber.
After this incubation the filter is carefully flushed with GBSS+BSA to wash off the EDTA, and then the filter is removed. […]
Turning to `COc1ccc(C(=O)NC2CCCCNC2=O)cc1` (stereo not drawn) [Reference Example 8, 3-(4′-Methoxybenzoylamino)azepan-2-one], the EC50 is not above 100 nM. In the case of `COc1ccc(C(=O)NC2CCCNC2=O)cc1` (stereo not drawn) [Reference Example 7, 3-(4′-Methoxybenzoylamino)tetrahydropyridin-2-one], the EC50 was not above 100 nM.

With `Cc1ccc(C(=O)NC2CCCCNC2=O)cc1` (stereo not drawn) [Reference Example 4, 3-(4′-Methylbenzoylamino)azepan-2-one], the EC50 is not above 100 nM. Consider `O=C(NC1CCCCNC1=O)c1ccc(F)cc1` (stereo not drawn) [Reference Example 10, 3-(4′-Fluorobenzoylamino)azepan-2-one], for which the EC50 was not above 100 nM.

`O=C(NC1CCCCNC1=O)c1ccc(Cl)cc1` (stereo not drawn) [Reference Example 6, 3-(4′-Chlorobenzoylamino)azepan-2-one]: the EC50 is not above 100 nM.

`O=C(NC1CCCNC1=O)c1ccccc1` (stereo not drawn) [Reference Example 1, 3-(Benzoylamino)tetrahydropyridin-2-one]: the EC50 is not above 100 nM. For `O=C(NC1CCCNC1=O)c1ccc(Cl)cc1` (stereo not drawn) [Reference Example 5, 3-(4′-Chlorobenzoylamino)tetrahydropyridin-2-one], the EC50 is not above 100 nM. The same measure, in the same setting: with `O=C(NC1CCCNC1=O)c1ccc(F)cc1` (stereo not drawn) [Reference Example 9, 3-(4′-Fluorobenzoylamino)tetrahydropyridin-2-one] the figure was not above 100 nM; with `O=C(NC1CCCCNC1=O)c1ccccc1` (stereo not drawn) [Reference Example 2, 3-(Benzoylamino)azepan-2-one], not above 100 nM; with `Cc1cc(C)cc(C(=O)NC2CCCCNC2=O)c1` (stereo not drawn) [Reference Example 14, 3-(3′,5′-Dimethylbenzoylamino)azepan-2-one], not above 100 nM. `Cc1ccc(C(=O)NC2CCCNC2=O)cc1` (stereo not drawn) [Reference Example 3, 3-(4′-Methylbenzoylamino)tetrahydropyridin-2-one]: the EC50 was not above 100 nM. On to `Cc1cc(C)cc(C(=O)NC2CCCNC2=O)c1` (stereo not drawn) [Reference Example 13, 3-(3′,5′-Dimethylbenzoylamino)tetrahydropyridin-2-one], for which the EC50 was not above 100 nM.

Test system in another series: not given
Assay: not given
Details: not given
Consider `CCCCc1ccc(C(=O)N[C@H]2CCCNC2=O)cc1` [Example 17, (S)-3-(4′-Butylbenzoylamino)-tetrahydropyridin-2-one], for which the melting point was 117 to 118 °C. Regarding `CC(C)(C)c1ccc(C(=O)N[C@H]2CCCCNC2=O)cc1` [Example 19, (S)-3-(4′-tert-Butylbenzoylamino)-azepan-2-one], the melting point lay in the range of 204 to 205 °C. In turn, `CC(C)(C)c1ccc(C(=O)N[C@H]2CCCNC2=O)cc1` [Example 20, (S)-3-(4′-tert-Butylbenzoylamino)-tetrahydropyridin-2-one] had a melting point of 195 to 196 °C. In the case of `CCCCc1ccc(C(=O)N[C@@H]2CCCNC2=O)cc1` [Example 18, (R)-3-(4′-Butylbenzoylamino)-tetrahydropyridin-2-one], the melting point was 116 to 117 °C. Take `CC(C)(C)c1ccc(C(=O)N[C@@H]2CCCNC2=O)cc1` [Example 21, (R)-3-(4′-tert-Butylbenzoylamino)-tetrahydropyridin-2-one]: the melting point is 193 to 194 °C. In turn, `O=C(N[C@H]1CCCNC1=O)c1cc(F)cc(F)c1` [Example 12, (S)-3,5-difluoro-N-(2-oxopiperidin-3-yl)benzamide] returned a melting point of 198 to 199 °C. `CCCCCCc1ccc(C(=O)N[C@H]2CCCCNC2=O)cc1` [Example 22, (S)-3-(4′-Hexylbenzoylamino)-azepan-2-one]: the melting point lay in the range of 167 to 168 °C. On to `CCCCCCCCc1ccc(C(=O)N[C@H]2CCCNC2=O)cc1` [Example 26, (S)-3-(4′-Octylbenzoylamino)-tetrahydropyridin-2-one], for which the melting point lay within 122 to 123 °C. Take `O=C(N[C@H]1CCCNC1=O)c1cccc(F)c1` [Example 1, (S)-3-Fluoro-N-(2-oxopiperidin-3-yl)benzamide]: the melting point was in the range of 164 to 166 °C. Same read-out and setting: with `O=C(N[C@H]1CCCNC1=O)c1ccc(C(F)(F)F)cc1` [Example 4, (S)—N-(2-Oxopiperidin-3-yl)-4-(trifluoromethyl)benzamide] the figure was 212 to 214 °C; with `CCc1ccc(C(=O)N[C@H]2CCCCNC2=O)cc1` [Example 14, (S)-3-(4′-Ethylbenzoylamino)-azepan-2-one], 218 to 219 °C. Consider `CCCCCCc1ccc(C(=O)N[C@H]2CCCNC2=O)cc1` [Example 23, (S)-3-(4′-Hexylbenzoylamino)-tetrahydropyridin-2-one], for which the melting point lay in the range of 118 to 119 °C. The same measure, in the same setting: with `CCc1ccc(C(=O)N[C@H]2CCCNC2=O)cc1` [Example 15, (S)-3-(4′-Ethylbenzoylamino)-tetrahydropyridin-2-one] the figure was 112 to 113 °C; with `O=C(N[C@H]1CCCNC1=O)c1ccc(F)cc1F` [Example 8, (S)-2,4-difluoro-N-(2-oxopiperidin-3-yl)benzamide], 140 to 141 °C; with `O=C(N[C@H]1CCCNC1=O)c1cccc(C(F)(F)F)c1` [Example 5, (S)—N-(2-Oxopiperidin-3-yl)-3-(trifluoromethyl)benzamide], 148 to 150 °C. `CCCCCCCCc1ccc(C(=O)N[C@H]2CCCCNC2=O)cc1` [Example 25, (S)-3-(4′-Octylbenzoylamino)-azepan-2-one]: the melting point was 159 to 160 °C. `CCCCc1ccc(C(=O)N[C@H]2CCCCNC2=O)cc1` [Example 16, (S)-3-(4′-Butylbenzoylamino)-azepan-2-one] came in with a melting point of 183 to 184 °C. With `CCCCCCCCc1ccc(C(=O)N[C@@H]2CCCNC2=O)cc1` [Example 27, (R)-3-(4′-Octylbenzoylamino)-tetrahydropyridin-2-one], the melting point was 122 to 123 °C. The same measure, in the same setting: under `O=C(N[C@H]1CCCNC1=O)c1ccccc1F` [Example 2, (S)-2-Fluoro-N-(2-oxopiperidin-3-yl)benzamide] stands 166 to 168 °C; under `CCCCCCc1ccc(C(=O)N[C@@H]2CCCNC2=O)cc1` [Example 24, (R)-3-(4′-Hexylbenzoylamino)-tetrahydropyridin-2-one], 117 to 118 °C. In turn, `O=C(N[C@H]1CCCNC1=O)c1ccc(F)c(F)c1` [Example 11, (S)-3,4-difluoro-N-(2-oxopiperidin-3-yl)benzamide] yielded a melting point of 202 to 204 °C. As to `O=C(N[C@H]1CCCNC1=O)c1c(F)cccc1F` [Example 10, (S)-2,6-difluoro-N-(2-oxopiperidin-3-yl)benzamide], the melting point fell in the range of 190 to 194 °C. Same read-out and setting: under `O=C(N[C@H]1CCCNC1=O)c1ccccc1C(F)(F)F` [Example 6, (S)—N-(2-Oxopiperidin-3-yl)-2-(trifluoromethyl)benzamide] stands 155 to 156 °C; under `O=C(N[C@H]1CCCNC1=O)c1cc(F)ccc1F` [Example 9, (S)-2,5-difluoro-N-(2-oxopiperidin-3-yl)benzamide], 140 to 142 °C; under `O=C(N[C@H]1CCCNC1=O)c1cccc(F)c1F` [Example 7, (S)-2,3-difluoro-N-(2-oxopiperidin-3-yl)benzamide], 160 to 162 °C.

Another series concerns chemokine-induced migration.
Assay: not given
The settings on record: cited from earlier work.
For the compound `CCCCCCCCCC(C)(C)CC(=O)NC1CCCCNC1=O` (stereo not drawn) [3′3′-dimethyldodecanoyl-3-aminocaprolactam], the “BSCI potency/activity in words (comparative)” value is reported as “no more potent”. `CCCCCCCCCC=CC(=O)NC1CCCCNC1=O` (stereo not drawn) [dodec-2′,3′-enoyl-3-aminocaprolactam]: the “BSCI potency/activity in words (comparative)” value is “markedly lower potency”.

The record behind these values is patent US20130172318A1, “ANTI-INFLAMMATORY AGENTS” (priority 2010, published 2013).
